# Data taken from ChEMBL document CHEMBL1146218, “Highly brominated mono- and bis-phenols from the marine red alga Symphyocladia latiuscula with radical-scavenging activity” (J Nat Prod, 2007).
# Assay: DPPH radical scavenging activity
# Type: functional
smiles,measurement,value
O=Cc1c(Br)c(O)c(O)c(Br)c1Br,IC50,24.7 µM
Oc1c(O)c(Br)c(COCc2c(Br)c(O)c(O)c(Br)c2Br)c(Br)c1Br,IC50,8.5 µM
COCc1c(Br)c(O)c(O)c(Br)c1Cc1c(Br)c(O)c(O)c(Br)c1Br,IC50,10.5 µM
Oc1c(O)c(Br)c(Cc2c(Br)c(O)c(O)c(Br)c2Br)c(Br)c1Br,IC50,8.1 µM
Cc1c(Br)c(O)c(O)c(Br)c1Br,IC50,14 µM
Oc1c(O)c(Br)c(CCc2c(Br)c(O)c(O)c(Br)c2Br)c(Br)c1Br,IC50,10.2 µM
Cc1cc(C(C)(C)C)c(O)c(C(C)(C)C)c1 [BUTYLATED HYDROXYTOLUENE],IC50,81.8 µM
COCc1c(Br)c(O)c(O)c(Br)c1Br,IC50,15.5 µM
CS(=O)(=O)Cc1c(Br)c(O)c(O)c(Br)c1Br,IC50,24 µM
O=C1CCCN1Cc1c(Br)c(O)c(O)c(Br)c1Br,IC50,18.5 µM
